Measured values from patent publication US20200069648A1, “HALOALLYLAMINE PYRAZOLE DERIVATIVE INHIBITORS OF LYSYL OXIDASES AND USES THEREOF” (Pharmaxis Ltd., priority 2017, published 2020).
Counter-ions that a name gives are not always drawn.

biological target: T1, Human LOXL2 (Homo sapiens, UniProt Q9Y4K0); test: LOXL2 amine oxidase inhibition, peroxidase-coupled Amplex Red assay; assay type: biochemical; settings: 30 min preincubation at 37° C., putrescine substrate
T1 sequence (Q9Y4K0 26-774): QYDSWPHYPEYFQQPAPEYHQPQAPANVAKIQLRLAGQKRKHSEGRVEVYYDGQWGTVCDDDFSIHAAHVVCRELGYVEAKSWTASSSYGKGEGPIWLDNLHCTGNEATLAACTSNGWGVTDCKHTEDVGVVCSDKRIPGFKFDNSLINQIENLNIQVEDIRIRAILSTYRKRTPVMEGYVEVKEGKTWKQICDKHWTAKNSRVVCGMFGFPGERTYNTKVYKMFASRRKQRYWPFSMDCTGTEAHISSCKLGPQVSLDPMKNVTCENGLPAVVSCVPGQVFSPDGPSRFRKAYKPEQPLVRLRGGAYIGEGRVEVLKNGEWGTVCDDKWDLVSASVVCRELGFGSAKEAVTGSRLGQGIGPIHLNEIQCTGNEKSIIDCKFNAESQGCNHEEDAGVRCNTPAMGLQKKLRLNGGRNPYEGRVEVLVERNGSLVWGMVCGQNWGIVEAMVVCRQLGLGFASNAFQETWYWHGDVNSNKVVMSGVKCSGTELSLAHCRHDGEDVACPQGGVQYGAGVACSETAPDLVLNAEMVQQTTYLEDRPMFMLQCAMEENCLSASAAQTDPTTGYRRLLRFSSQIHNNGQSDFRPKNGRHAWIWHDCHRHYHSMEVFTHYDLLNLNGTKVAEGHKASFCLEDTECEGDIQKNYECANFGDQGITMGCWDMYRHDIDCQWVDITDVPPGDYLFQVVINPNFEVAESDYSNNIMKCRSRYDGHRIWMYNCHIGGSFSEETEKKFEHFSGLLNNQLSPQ
Procedure, shortened: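 Enzyme preincubated 30 min at 37 °C with compound (11-point curve) in 1.2 M urea, 50 mM borate pH 8.2 plus 1 μM mofegiline and 0.5 mM pargyline; putrescine at twice KM (10 mM for LOXL2), Amplex Red and HRP added. Fluorescence (565/590 nm) read every 2.5 min for 30 min; IC50 from kinetic slopes.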

Compound	IC50 [µM]
Cc1nn(C/C(F)=C/CN)c(C)c1Cc1ccc(S(=O)(=O)N(C)C)c(Cl)c1 [Compound 15, (Z)-4-((1-(4-amino-2-fluorobut-2-en-1-yl)-3,5-dimethyl-1H-pyrazol-4-yl)methyl)-2-chloro-N,N-dimethylbenzenesulfonamide hydrochloride]	< 1
CCOC(=O)c1nn(C/C(F)=C/CN)c(C)c1Cc1ccc(S(=O)(=O)N(C)C)cc1 [Compound 28, (Z)-ethyl 1-(4-amino-2-fluorobut-2-enyl)-4-(4-(N,N-dimethylsulfamoyl)benzyl)-5-methyl-1H-pyrazole-3-carboxylate hydrochloride]	< 1
Cc1nn(C/C(F)=C/CN)c(C(=O)N(C)C)c1Cc1ccc(S(=O)(=O)N(C)C)cc1 [Compound 29, (Z)-1-(4-amino-2-fluorobut-2-enyl)-4-(4-(N,N-dimethylsulfamoyl)benzyl)-N,N,3-trimethyl-1H-pyrazole-5-carboxamide hydrochloride]	< 1
Cc1nn(C/C(F)=C/CN)c(C(=O)O)c1Cc1ccc(S(=O)(=O)N(C)C)cc1 [Compound 30, (Z)-1-(4-amino-2-fluorobut-2-enyl)-4-(4-(N,N-dimethylsulfamoyl)benzyl)-3-methyl-1H-pyrazole-5-carboxylic acid hydrochloride]	< 1
Cc1c(Cc2ccc(S(=O)(=O)N(C)C)cc2)c(C(=O)O)nn1C/C(F)=C/CN [Compound 31, (Z)-1-(4-amino-2-fluorobut-2-enyl)-4-(4-(N,N-dimethylsulfamoyl)benzyl)-5-methyl-1H-pyrazole-3-carboxylic acid hydrochloride]	< 1
Cc1c(Cc2ccc(S(=O)(=O)N(C)C)cc2)c(C(=O)N(C)C)nn1C/C(F)=C/CN [Compound 32, (Z)-1-(4-amino-2-fluorobut-2-enyl)-4-(4-(N,N-dimethylsulfamoyl)benzyl)-N,N,5-trimethyl-1H-pyrazole-3-carboxamide hydrochloride]	< 1
CC(C)c1nn(C/C(F)=C/CN)c(C(C)O)c1Cc1ccc(S(=O)(=O)N(C)C)c(Cl)c1 (stereo not drawn) [Compound 59, (Z)-4-((1-(4-amino-2-fluorobut-2-en-1-yl)-5-(1-hydroxyethyl)-3-isopropyl-1H-pyrazol-4-yl)methyl)-2-chloro-N,N-dimethylbenzenesulfonamide hydrochloride]	< 1
CC(C)c1nn(C/C(F)=C/CN)c(C(C)C)c1Cc1ccc(S(=O)(=O)N(C)C)c(Cl)c1 [Compound 60, (Z)-4-((1-(4-amino-2-fluorobut-2-en-1-yl)-3,5-diisopropyl-1H-pyrazol-4-yl)methyl)-2-chloro-N,N-dimethylbenzenesulfonamide hydrochloride]	< 1
Cc1nn(C/C(F)=C/CN)c(C(=O)N(C)C)c1Cc1ccc(S(=O)(=O)N(C)C)c(Cl)c1 [Compound 61, (Z)-1-(4-amino-2-fluorobut-2-en-1-yl)-4-(3-chloro-4-(N,N-dimethylsulfamoyl)benzyl)-N,N,3-trimethyl-1H-pyrazole-5-carboxamide hydrochloride]	< 1
Cc1nn(C/C(F)=C/CN)c(C(=O)NC(C)(C)C)c1Cc1ccc(S(=O)(=O)N(C)C)c(Cl)c1 [Compound 62, (Z)-1-(4-amino-2-fluorobut-2-en-1-yl)-N-(tert-butyl)-4-(3-chloro-4-(N,N-dimethylsulfamoyl)benzyl)-3-methyl-1H-pyrazole-5-carboxamide hydrochloride]	< 1

The next lines start with the values.

IC50 [µM]	Compound
< 1	CNS(=O)(=O)c1ccc(Cn2nc(C)c(C/C(F)=C/CN)c2C)c(C(F)(F)F)c1 [Compound 23, (Z)-4-((4-(4-amino-2-fluorobut-2-en-1-yl)-3,5-dimethyl-1H-pyrazol-1-yl)methyl)-N-methyl-3-(trifluoromethyl)benzenesulfonamide hydrochloride]
< 1	Cc1nn(Cc2ccc(S(C)(=O)=O)c(Cl)c2)c(C)c1C/C(F)=C/CN [Compound 24, (Z)-4-(1-(3-chloro-4-(methylsulfonyl)benzyl)-3,5-dimethyl-1H-pyrazol-4-yl)-3-fluorobut-2-en-1-amine hydrochloride]
< 1	Cc1nn(Cc2cc(F)c(S(=O)(=O)N(C)C)cc2F)c(C)c1C/C(F)=C/CN [Compound 25, (Z)-4-((4-(4-amino-2-fluorobut-2-en-1-yl)-3,5-dimethyl-1H-pyrazol-1-yl)methyl)-2,5-difluoro-N,N-dimethylbenzenesulfonamide hydrochloride]
< 1	CNS(=O)(=O)c1cc(F)c(Cn2nc(C)c(C/C(F)=C/CN)c2C)cc1F [Compound 26, (Z)-4-((4-(4-amino-2-fluorobut-2-en-1-yl)-3,5-dimethyl-1H-pyrazol-1-yl)methyl)-2,5-difluoro-N-methylbenzenesulfonamide hydrochloride]
< 1	CCOC(=O)c1c(Cc2ccc(S(=O)(=O)N(C)C)cc2)c(C)nn1C/C(F)=C/CN [Compound 27, (Z)-ethyl 1-(4-amino-2-fluorobut-2-enyl)-4-(4-(N,N-dimethylsulfamoyl)benzyl)-3-methyl-1H-pyrazole-5-carboxylate hydrochloride]

tested on: CCl4 induced liver fibrosis; test: CCl4 induced liver fibrosis model; assay type: in vivo; settings: mice, CCl4 i.p. twice per week for 6 weeks; 0.1-100 mg/Kg; compared with vehicle-treated group
Experimental: An analysis of the use of LOXL2 inhibitors to treat inflammatory/fibrotic diseases is performed through the use of a CCl4 induced liver fibrosis model. Liver injury is frequently followed by complete parenchymal regeneration due to regenerative potency of hepatocytes. Continuous liver injury due to the administration of CCl4 leads to extracellular matrix accumulation, accompanied by recurrent hepatocyte necrosis, inflammation, and regenerative processes, causing liver fibrosis and consequently liver cirrhosis (see Natsume, M., et al., Attenuated liver fibrosis and depressed serum albumin levels in carbon tetrachloride-treated IL-6-deficient mice. J. Leukoc. Biol., 1999, 66, 601-608 also See Yao, Q, Y., et al. Inhibition by curcumin of multiple sites of the transforming growth factor-beta1 signalling pathway ameliorates the progression of liver fibrosis induced by carbon tetrachloride in rats. BMC Complement Altern Med. 2012 Sep. 16; 12(1):156.).
Mice are injected intraperitoneally with CCl4 (i.p.) 1 ml/kg 25% CCl4 in olive oil, twice per week for a total period of 6 weeks. Compound 15 is given 0.1-100 mg/Kg throughout the period of the experimental procedure or only 3 weeks after CCl4 administration and then throughout the entire study.

Compound	reduction in liver fibrosis by liver sirius red staining with quantification
Cc1nn(C/C(F)=C/CN)c(C)c1Cc1ccc(S(=O)(=O)N(C)C)c(Cl)c1 [Compound 15, (Z)-4-((1-(4-amino-2-fluorobut-2-en-1-yl)-3,5-dimethyl-1H-pyrazol-4-yl)methyl)-2-chloro-N,N-dimethylbenzenesulfonamide hydrochloride]	up to 50%

tested on: metastatic oral cancer cell line expressing DsRed; test: Oral metastatic cancer mouse model; assay type: in vivo; settings: mice, 0.1-100 mg/Kg, up to five weeks; compared with vehicle-treated group
Experimental: An analysis of the use of LOXL2 inhibitors to treat cancer diseases is performed through the use of an oral metastatic cancer mouse model.
Mice are injected with a metastatic oral cancer cell line expressing DsRed for tracking. Mice are monitored weekly by in vivo imaging (IVIS) based on DsRed expression and by caliper measurements of mouse tongues over a period of up to five weeks. Compound 15 is given 0.1-100 mg/Kg throughout the period of the experimental procedure or only two times a week throughout the entire study.

Compound	spread of metastasis	tongue cancer volume (tongue volume)
Cc1nn(C/C(F)=C/CN)c(C)c1Cc1ccc(S(=O)(=O)N(C)C)c(Cl)c1 [Compound 15, (Z)-4-((1-(4-amino-2-fluorobut-2-en-1-yl)-3,5-dimethyl-1H-pyrazol-4-yl)methyl)-2-chloro-N,N-dimethylbenzenesulfonamide hydrochloride]	significant reduction	significant reduction
